From PubChem BioAssay (NCI)
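Dose response: 5 concentrations. Exposure: 48 h. Format: 96-well plates. Endpoint: linear interpolation; highest concentration if not reached. Abbreviation: GI50, concentration required for 50% inhibition of growth. At the TGI there is no net growth.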

Tests used:
Assay in all cases: NCI tumour cell line growth inhibition, 48 h
786-0 renal = system: 786-0 renal
A549 NSCLC = system: A549 NSCLC
HCT-116 colon = system: HCT-116 colon
HOP-92 NSCLC = system: HOP-92 NSCLC
NCI-H460 lung = system: NCI-H460 lung
NCI-H522 lung = system: NCI-H522 lung
OVCAR-4 ovarian = system: OVCAR-4 ovarian
SK-OV-3 ovarian = system: SK-OV-3 ovarian
UO-31 renal = system: UO-31 renal
IGROV1 ovarian = system: IGROV1 ovarian

Compound	GI50 (786-0 renal)	TGI (786-0 renal)	GI50 (A549 NSCLC)	TGI (A549 NSCLC)	GI50 (HCT-116 colon)	TGI (HCT-116 colon)	GI50 (HOP-92 NSCLC)	TGI (HOP-92 NSCLC)	GI50 (NCI-H460 lung)	TGI (NCI-H460 lung)	GI50 (NCI-H522 lung)	TGI (NCI-H522 lung)	GI50 (OVCAR-4 ovarian)	TGI (OVCAR-4 ovarian)	GI50 (SK-OV-3 ovarian)	TGI (SK-OV-3 ovarian)	GI50 (UO-31 renal)	TGI (UO-31 renal)	GI50 (IGROV1 ovarian)	TGI (IGROV1 ovarian)
COc1ccc(-c2nc(N)c(C#N)c3c2CCOc2c-3ccc3ccccc23)cc1	17.2 µM	48.3 µM	28 µM	76.7 µM	54.3 µM	> 100 µM	11.8 µM	37.9 µM	16.3 µM	> 100 µM	38.1 µM	> 100 µM	1.43 µM	9.38 µM	17.4 µM	55 µM	49.9 µM	> 100 µM	–	–
Cc1ccc(O)c(NC2=C(Cl)C(=O)N(Cc3ccccc3)C2=O)c1	29.6 µM	86.1 µM	27.1 µM	91.3 µM	31.2 µM	> 100 µM	–	–	28.6 µM	> 100 µM	13.1 µM	29.9 µM	31.7 µM	> 100 µM	80.5 µM	> 100 µM	16 µM	41 µM	6.44 µM	24.2 µM
COc1cc(NC(C)CCCNC(C)C)c2ncccc2c1OC (stereo not given)	> 100 µM	> 100 µM	> 100 µM	> 100 µM	27.8 µM	> 100 µM	–	–	34.1 µM	> 100 µM	–	–	4.2 µM	53.3 µM	> 100 µM	> 100 µM	5.29 µM	> 100 µM	13.4 µM	44.3 µM
Cc1cn2c(/C=N/N=C(N)N)c(-c3ccncc3)nc2s1	15.8 µM	29.3 µM	17.6 µM	32.1 µM	10.7 µM	22.5 µM	13.4 µM	26.9 µM	16.8 µM	30.4 µM	17.7 µM	59.7 µM	13.2 µM	32 µM	–	–	18.9 µM	43.7 µM	22.1 µM	49.2 µM
Nc1nc2c(ccc3ccccc32)s1	> 100 µM	> 100 µM	> 100 µM	> 100 µM	> 100 µM	> 100 µM	19.3 µM	85.2 µM	> 100 µM	> 100 µM	> 100 µM	> 100 µM	> 100 µM	> 100 µM	–	–	74.3 µM	> 100 µM	> 100 µM	> 100 µM
Cc1cc2c(cc1CO)N1Cc3cc(C)c(CO)cc3N(C2)C1	–	> 100 µM	–	> 100 µM	–	> 100 µM	–	–	–	> 100 µM	–	> 100 µM	–	> 100 µM	–	> 100 µM	–	–	–	> 100 µM
Nc1ccccc1C(=O)NC(=O)Nc1ccc(Oc2ncc(Br)cn2)c(Cl)c1	–	3.58 µM	–	13.4 µM	–	12.1 µM	0.303 µM	6.66 µM	–	3.53 µM	–	–	–	10.2 µM	–	3.2 µM	–	9.03 µM	–	7.83 µM
COc1cc(C2c3cc4c(cc3[C@@H](N(C)c3ccc(N(C)C)cc3)C3COC(=O)C23)OCO4)cc(OC)c1O (stereo not given in full)	–	26.4 µM	–	–	–	14.8 µM	–	36.8 µM	–	24.2 µM	–	0.553 µM	–	29.4 µM	–	43 µM	–	19.4 µM	–	31.5 µM
